Read-outs that look alike come from different tables or passages of the source.
Experiments:
Assay type in all cases: cell-based
Lovo cells (G13D) = experiment: Cell viability assay (CellTiter-Glo), Lovo cells; conditions: Homo sapiens, 72 h, read-out: Inhibition of Cancerous Cells IC50 Lovo (G13D)
Summary of the method: (§1)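 Each cell line is treated with compound for 3 days at 37 °C under 5% CO2 in its own medium containing 2.5% FBS. ATP-based CellTiter-Glo luminescence, measured after 10 min shaking, serves as the viability signal relative to DMSO control.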

H23 cells = experiment: Cell viability assay (CellTiter-Glo), H23 cells; conditions: Homo sapiens, NCI-H23, 72 h, read-out: Inhibition of Cancerous Cells IC50 H23
Experimental: H358, H23, SW48, and AsPC-1 cells were cultured in RPMI 1640 media supplemented with 10% fetal bovine serum, streptomycin, and penicillin. Lovo and SW480 cells were cultured in DMEM media supplemented with 10% fetal bovine serum, streptomycin, and penicillin. The cell lines were plated in their respective medium supplemented with 2.5% fetal bovine serum, streptomycin, and penicillin. All cell lines were plated in white walled 96-well plates at 2,000 cells/well or 384-well plates at 500 cells/well, except Lovo, which were plated at 4,000 or 1,000 cells/well, respectively. The cells were incubated in DMSO (control) or a compound for 3 days at 37° C. under 5% CO2. A CELLTITER-GLO® reagent (100 μL) was then added to each well. After a 10 min incubation with shaking, luminescence was measured using an ENVISION® multimode plate reader.

SW48 cells (wt) = experiment: Cell viability assay (CellTiter-Glo), SW48 cells; conditions: Homo sapiens, read-out: Inhibition of Cancerous Cells IC50 SW48 (wt)
Summary of the method: as §1

SW480 cells (G12V) = experiment: Cell viability assay (CellTiter-Glo), SW480 cells; conditions: Homo sapiens, read-out: Inhibition of Cancerous Cells IC50 SW480 (G12V)
Summary of the method: as §1

H358 cells (G12C) = experiment: Cell viability assay (CellTiter-Glo), H358 cells; conditions: Homo sapiens, NCI-H358, 72 h, read-out: Inhibition of Cancerous Cells IC50 H358 (G12C)
Summary of the method: as §1

Molm-13 cells = experiment: Inhibition of Molm-13 cells; conditions: Homo sapiens; for inhibition at 1 µM: compound 1 μM, read-out: Inhibition of Molm-13 Cells, percentage of inhibition at 1 μM; for inhibition at 10 µM: compound 10 μM, read-out: Inhibition of Molm-13 Cells, percentage of inhibition at 10 μM
[1] = Lovo cells, 3 days incubation, CellTiter-Glo luminescence
[2] = H23 cells, 3 days incubation, CellTiter-Glo luminescence
[3] = 72 h, SW48 cells, 3 days incubation, CellTiter-Glo luminescence
[4] = 72 h, SW480 cells, 3 days incubation, CellTiter-Glo luminescence
[5] = H358 cells, 3 days incubation, CellTiter-Glo luminescence

`COc1cc2c(N[C@H](C)c3cccc(Br)c3)nc(C)nc2cc1OCCCCCCCN1CCC(c2cc(F)cc3c2CN(C2CCC(=O)NC2=O)C3=O)CC1` (stereo partly drawn) [Compound A1, 3-(4-(1-(7-((4-(((R)-1-(3-bromophenyl)ethyl)amino)-6-methoxy-2-methylquinazolin-7-yl)oxy)heptyl)piperidin-4-yl)-6-fluoro-1-oxoisoindolin-2-yl)piperidine-2,6-dione] showed an IC50 (Lovo cells (G13D); LoVo) of 940 nM, an IC50 (H23 cells) of 1200 nM and an IC50 (SW48 cells (wt); SW48, 72 h) of 700 nM. For the same compound, the IC50 (SW480 cells (G12V); SW480, 72 h) was 580 nM and the IC50 (H358 cells (G12C)) was 2800 nM.

`COc1cc2nc(C)nc(N[C@H](C)c3cccc(Br)c3)c2cc1OC` [drawing 284, reference compound] was tested, and the IC50 (Lovo cells (G13D); [1]) was 2200 nM, the IC50 (H23 cells; [2]) was 4800 nM and the IC50 (SW48 cells (wt); [3]) was 3600 nM. The IC50 (SW480 cells (G12V); [4]) was 2800 nM and the IC50 (H358 cells (G12C); [5]) was 4100 nM.

Work on `CCOc1cc(C(C)(C)C)ccc1C1=N[C@@](C)(c2ccc(Cl)cc2)[C@@](C)(c2ccc(Cl)cc2)N1C(=O)N1CCN(CCC(=O)NCCCCCOc2cc3nc(C)nc(N[C@H](C)c4cccc(Br)c4)c3cc2OC)CC1` [Compound C8, N-(5-((4-(((R)-1-(3-Bromophenyl)ethyl)amino)-6-methoxy-2-methylquinazolin-7-yl)oxy)pentyl)-3-(4-((4S,5R)-2-(4-(tert-butyl)-2-ethoxyphenyl)-4,5-bis(4-chlorophenyl)-4,5-dimethyl-4,5-dihydro-1H-imidazole-1-carbonyl)piperazin-1-yl)propanamide] yielded an IC50 (Lovo cells (G13D); [1]) of 540 nM, an IC50 (H23 cells; [2]) greater than 10000 nM and an IC50 (SW48 cells (wt); [3]) of 1100 nM. It also gave an IC50 (SW480 cells (G12V); [4]) of 1400 nM and an IC50 (H358 cells (G12C); [5]) of 2800 nM.

`COc1cc2c(N[C@H](C)c3cccc(Br)c3)nc(C)nc2cc1OCCCN1CCC(c2cc(F)cc3c2CN(C2CCC(=O)NC2=O)C3=O)CC1` (stereo partly drawn) [Compound A10, 3-(4-(1-(3-((4-(((R)-1-(3-Bromophenyl)ethyl)amino)-6-methoxy-2-methyl-quinazolin-7-yl)oxy)propyl)piperidin-4-yl)-6-fluoro-1-oxoisoindolin-2-yl)piperidine-2,6-dione] gave an inhibition at 1 µM (Molm-13 cells) of 22% and an inhibition at 10 µM (Molm-13 cells) of 99%.

With `CCOc1cc(C(C)(C)C)ccc1C1=N[C@@](C)(c2ccc(Cl)cc2)[C@@](C)(c2ccc(Cl)cc2)N1C(=O)N1CCN(CCC(=O)NCCCCCCCCCOc2cc3nc(C)nc(N[C@H](C)c4cccc(Br)c4)c3cc2OC)CC1` [Compound C7, N-(9-((4-(((R)-1-(3-Bromophenyl)ethyl)amino)-6-methoxy-2-methylquinazolin-7-yl)oxy)nonyl)-3-(4-((4S,5R)-2-(4-(tert-butyl)-2-ethoxyphenyl)-4,5-bis(4-chlorophenyl)-4,5-dimethyl-4,5-dihydro-1H-imidazole-1-carbonyl)piperazin-1-yl)propanamide] the IC50 (Lovo cells (G13D); [1]) was 6600 nM, the IC50 (H23 cells; [2]) was greater than 10000 nM and the IC50 (SW48 cells (wt); [3]) was greater than 10000 nM. The IC50 (SW480 cells (G12V); [4]) was greater than 10000 nM and the IC50 (H358 cells (G12C); [5]) was greater than 10000 nM.

`COc1cc2nc(C)nc(N[C@H](C)c3cccc(Br)c3)c2cc1OC` [drawing 287] gave an inhibition at 1 µM (Molm-13 cells) of 17% and an inhibition at 10 µM (Molm-13 cells) of 91%.

With `COc1cc2c(N[C@H](C)c3cccc(Br)c3)nc(C)nc2cc1OC1CCN(CCCCN2CCC(c3cc(F)cc4c3CN(C3CCC(=O)NC3=O)C4=O)CC2)CC1` (stereo partly drawn) [Compound A18, 3-(4-(1-(4-(4-((4-(((R)-1-(3-Bromophenyl)ethyl)amino)-6-methoxy-2-methyl-quinazolin-7-yl)oxy)piperidin-1-yl)butyl)piperidin-4-yl)-6-fluoro-1-oxoisoindolin-2-yl)-piperidine-2,6-dione] the IC50 (H23 cells; [2]) was 2600 nM and the IC50 (H358 cells (G12C); [5]) was 3000 nM.

With `COc1cc2c(N[C@H](C)c3cccc(Br)c3)nc(C)nc2cc1OCCOCCOCCNc1cccc2c1C(=O)N(C1CCC(=O)NC1=O)C2=O` (stereo partly drawn) [Compound A36, 4-((2-(2-(2-((4-(((R)-1-(3-Bromophenyl)ethyl)amino)-6-methoxy-2-methyl-quinazolin-7-yl)oxy)ethoxy)ethoxy)ethyl)amino)-2-(2,6-dioxopiperidin-3-yl)isoindoline-1,3-dione] the IC50 (H23 cells; [2]) was 8300 nM and the IC50 (H358 cells (G12C); [5]) was 8800 nM.

In the case of `CNCc1ccccc1-c1csc([C@@H](C)Nc2nc(C)nc3cc(OCCCCCCCCC(=O)N[C@H](C(=O)N4C[C@H](O)C[C@H]4C(=O)NCc4ccc(-c5scnc5C)cc4)C(C)(C)C)c(OC)cc23)c1` [Compound D9, (2S,4R)-4-hydroxy-1-((S)-2-(9-((6-methoxy-2-methyl-4-(((R)-1-(4-(2-((methylamino)methyl)phenyl)thiophen-2-yl)ethyl)amino)quinazolin-7-yl)oxy)nonanamido)-3,3-dimethylbutanoyl)-N-(4-(4-methylthiazol-5-yl)benzyl)pyrrolidine-2-carboxamide], the IC50 (H23 cells; [2]) is reported as 1000 nM and the IC50 (H358 cells (G12C); [5]) is reported as 970 nM.

Work on `COc1cc2c(N[C@H](C)c3cccc(Br)c3)nc(C)nc2cc1OCCOCCOCCOCCNc1cccc2c1C(=O)N(C1CCC(=O)NC1=O)C2=O` (stereo partly drawn) [Compound A4, 4-((2-(2-(2-(2-((4-(((R)-1-(3-bromophenyl)ethyl)amino)-6-methoxy-2-methylquinazolin-7-yl)oxy)ethoxy)ethoxy)ethoxy)ethyl)amino)-2-(2,6-dioxopiperidin-3-yl)isoindoline-1,3-dione] yielded an IC50 (H23 cells; [2]) of 9000 nM and an IC50 (H358 cells (G12C); [5]) of 7200 nM.

With `COc1cc2c(N[C@H](C)c3cccs3)nc(C)nc2cc1OCCCCCCCCC(=O)N[C@H](C(=O)N1C[C@H](O)C[C@H]1C(=O)NCc1ccc(-c2scnc2C)cc1)C(C)(C)C` [Compound D5, (2S,4R)-4-Hydroxy-1-((S)-2-(9-((6-methoxy-2-methyl-4-(((R)-1-(thiophen-2-yl)ethyl)amino)quinazolin-7-yl)oxy)nonanamido)-3,3-dimethylbutanoyl)-N-(4-(4-methylthiazol-5-yl)benzyl)pyrrolidine-2-carboxamide] the inhibition at 1 µM (Molm-13 cells) was 22% and the inhibition at 10 µM (Molm-13 cells) was 99%.

`CNCc1ccccc1-c1csc([C@@H](C)Nc2nc(C)nc3cc(OC)c(OC)cc23)c1` [reference compound] showed an IC50 (H23 cells; [2]) of 1500 nM and an IC50 (H358 cells (G12C); [5]) of 2100 nM.

Reference: patent publication US20240025863A1, “SOS1 PROTEIN DEGRADERS, PHARMACEUTICAL COMPOSITIONS THEREOF, AND THEIR THERAPEUTIC APPLICATIONS” (BioTheryX, Inc., priority 2020, published 2024)
